According to US9605296B2, “Fluorogenic peptidase substrate” (ECOLE NORMALE SUPERIEURE DE LYON, priority 2011, dated 2017):

Assays:
[1] = target: T1, microsomal leucine aminopeptidase (EC 3.4.11.2; PLA) (Sus scrofa, UniProt P15145); experiment: Enzymatic test: fluorescence of probes incubated with microsomal leucine aminopeptidase (PLA) in multi-well plates; type: biochemical, pig; details: for Delay for obtaining an intense increase in the signal: different probe concentrations, FIG. 5, generally less than 100 minutes
T1 construct: The microsomal leucine aminopeptidase (EC 3.4.11.2) of pig kidney was purchased from Sigma; purchased Sigma 069K7356; host or cells: pig kidney (tissue-derived enzyme)
T1 sequence (P15145 1-963): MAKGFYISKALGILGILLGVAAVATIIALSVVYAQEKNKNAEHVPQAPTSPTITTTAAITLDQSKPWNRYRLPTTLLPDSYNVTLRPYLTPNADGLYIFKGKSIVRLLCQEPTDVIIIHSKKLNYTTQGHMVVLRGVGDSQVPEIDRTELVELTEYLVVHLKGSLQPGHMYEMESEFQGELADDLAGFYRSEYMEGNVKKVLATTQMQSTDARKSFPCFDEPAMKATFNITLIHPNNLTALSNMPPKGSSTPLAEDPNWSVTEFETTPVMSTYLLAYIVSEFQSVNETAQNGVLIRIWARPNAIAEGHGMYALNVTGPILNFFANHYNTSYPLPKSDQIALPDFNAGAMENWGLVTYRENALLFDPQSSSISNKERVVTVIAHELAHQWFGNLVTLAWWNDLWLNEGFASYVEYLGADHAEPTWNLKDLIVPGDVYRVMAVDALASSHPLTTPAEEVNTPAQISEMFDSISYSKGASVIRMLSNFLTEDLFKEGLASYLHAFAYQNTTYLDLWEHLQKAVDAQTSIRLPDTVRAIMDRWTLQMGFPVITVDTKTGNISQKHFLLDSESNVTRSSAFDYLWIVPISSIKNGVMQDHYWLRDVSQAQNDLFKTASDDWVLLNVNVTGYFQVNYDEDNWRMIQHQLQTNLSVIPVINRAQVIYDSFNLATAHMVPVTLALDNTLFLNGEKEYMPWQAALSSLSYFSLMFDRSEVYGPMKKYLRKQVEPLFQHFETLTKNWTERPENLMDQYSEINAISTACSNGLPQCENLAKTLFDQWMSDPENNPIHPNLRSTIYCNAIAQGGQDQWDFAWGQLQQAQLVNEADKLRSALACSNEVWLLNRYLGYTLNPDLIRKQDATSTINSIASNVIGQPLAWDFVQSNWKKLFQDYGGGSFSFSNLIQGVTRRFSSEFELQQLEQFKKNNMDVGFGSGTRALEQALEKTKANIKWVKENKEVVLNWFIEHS
Method: Preamble: Within the scope of the invention, upon applying the enzymatic tests, once the minimum, concentration allowing triggering of crystal nucleation is reached, a solid fluorophore may first be deposited on the walls of the receptacle (a well in a multi-well plate), before beginning to deposit on the bottom of the receptacle. The delay associated with the triggering of nucleation (≧10 mins) is well seen on the kinetic curves in the figures shown. The enzymatic tests carried out are illustrated with the appended figures.
(§1) The probes I.1 and I.2 were evaluated by incubation with the target enzyme, microsomal leucine aminopeptidase (EC 3.4.11.2; “PLA”; commercial) in an in vitro medium in multi-well micro-plates designed for fluorescence readers.
The main tests were conducted at 25° C., in solutions buffered to pH 7.4 (physiological pH). […] A temperature of 25° C. was therefore preferred.
(§2) All the final solutions for the enzymatic tests were buffered to a pH varying from 7.4 to 7.6 (depending on the room temperature) with a 25 mM (total concentration) of Tris/Tris.HCl buffer, containing 11 mM of NaCl. The microsomal leucine aminopeptidase (EC 3.4.11.2) of pig kidney was purchased from Sigma (catalogue no. 069K7356) in the form of a suspension in ammonium sulfate (3.5 M) containing MgCl2 (10 mM), with 3.5 mg·mL^−1 of protein contents and 10-40 U/mg of protein, as determined for the standard substrate, leucyl p-nitroanilide, and was stored in a fridge at 4° C. for a maximum of 40 days before its use. […] Analyses Carried Out:
(§3) The analyses were carried out with reading of the fluorescence values, measured in RFU, versus time. The analyses were conducted in black polypropylene plates with 96 (Corning, Corning Inc.) or with 384 (Nunclon, Nunc Inc.) wells, and recorded on a microplate fluorimeter (Mithras LB940 from Berthold Technologies). This fluorimeter was used in a so-called repeated mode, where the fluorescence was measured with a reading, here selected to be 3 seconds per well, the excitation beam with a diameter of 4 mm being centered in the well. […] It should be noted that this mode of use is close to the operation of optical high throughput screening by fluorescence, which is one of the applications envisioned for these types of probes. […] In the scanning mode, the wells were divided into a square read-out grid, typically covering the well with a resolution of 8×8 to 15×15 pixels, each of the pixels being read between 0.1 and 0.3 s. This scanning mode partly removes the errors and the read-out noise of the total fluorescence of the well subject to the repeated mode, subsequently to the tendency of the fluorophore once it is released of depositing a first phase on the walls. The scanning mode as implemented here is also slower and less suitable for qualitatively following reaction kinetics. It should be noted that this mode of use is close to the operation of cell counting, which is a second application envisioned for these types of probes.
The excitation wavelength for the probes I.1 and I.2 (based on HPQ) was set to 355 nm, and the localized emission wavelength was set to 510 nm, since the fluorimeter used has filters of the bandpass type for selecting these wavelengths with a bandwidth of 14 nm for the excitation beam and of 10 nm for the emission one.
The enzyme was added last to the prepared wells. After adding the enzyme, the contents of the well were sucked up and released twice with a pipette, in order to homogenize as much as possible the mixture. […] The addition of the enzyme well by well was accomplished by observing the reading delay between the wells, so that the reaction times of each well were the same for each readout of the plate in order to allow comparison of the acquired data for different wells (in these experiments, there was a delay between 3 seconds and 20 seconds, between the readout of the neighboring wells, to be multiplied by up to 77 wells read by acquisition at a time t). […]

[2] = Stability controls: fluorescence of probes in buffered aqueous solution without PLA enzyme (spontaneous hydrolysis, falsely positive signal); type: physicochemical; details: for Signal increase relative to noise in the absence of enzyme (stability to spontaneous hydrolysis): 100 μM, 660 minutes, buffered pH ~7.6, no PLA, FIG. 4
Method: as §1, §2, §3
A series of control measurements of background fluorescence was carried out, with wells containing some enzyme in the standard buffer without any probe. A last series of measurements was conducted by using a solution of probe I.1 prepared three weeks beforehand (“3 wks”), in order to obtain another estimation of the robustness of this probe towards spontaneous hydrolysis in practice. Each readout lasted for 3 seconds per well. […]

[3] = Solubility in water / aqueous media (observation); details: solid tosylate; dissolves easily in MeOH then dilutable with water
[4] = actual 10 μM, plateau not reached, underestimated
[5] = actual 18 μM, plateau not reached, underestimated

Compound	Predicted Conc. (initial probe concentration estimated from the average ratio) [1, 4] [µM]	Predicted Conc. (initial probe concentration estimated from the average ratio) [1, 5] [µM]	Predicted Conc. (initial probe concentration estimated from the average ratio) ([1]; actual 32 μM) [µM]	Predicted Conc. (initial probe concentration estimated from the average ratio) ([1]; actual 59 μM) [µM]	Predicted Conc. (initial probe concentration estimated from the average ratio) ([1]; actual 100 μM) [µM]	Predicted Conc. (initial probe concentration estimated from the average ratio) ([1]; actual 378 μM, 3 wks stored solution) [µM]	Signal/Conc. (signal plateau/concentration ratio) ([1]; probe 32 μM, with PLA) [RFU μM^−1]	Signal/Conc. (signal plateau/concentration ratio) ([1]; probe 59 μM, with PLA) [RFU μM^−1]	Signal/Conc. (signal plateau/concentration ratio) ([1]; probe 100 μM, with PLA) [RFU μM^−1]	Signal/Conc. (signal plateau/concentration ratio) ([1]; probe 378 μM, 3 wks stored solution, with PLA) [RFU μM^−1]	Photo-degradation: signals once the plateau is reached, under irradiation of the fluorescence reader ([1]; with PLA, 11 h acquisition, FIG. 6)	Delay for obtaining an intense increase in the signal ([1]; with PLA)	Signal increase relative to noise in the absence of enzyme (stability to spontaneous hydrolysis) [2]	Falsely positive signal due to spontaneous hydrolysis of the probe ([2]; probe 209 μM and 80 μM without enzyme, 40 hours of incubation, FIG. 1)	Solubility in water [3]	Degradation in the absence of enzyme ([2]; probe 100 μM without enzyme, FIG. 3)
CC(C)C[C@H](N)C(=O)NCC1CCCCN1C(=O)Oc1ccccc1-c1nc2ccccc2c(=O)[nH]1 (some centres unmarked) [I.1]	0	6	26	42	108	419	72794	63054	95711	98684	do not decrease over time	about 10 minutes	NO signal increase	absence of any falsely positive signal due to spontaneous hydrolysis of the probe	not very soluble in water	–
CC(C)C[C@H](N)C(=O)NCC(C)(C)N(C)C(=O)Oc1ccccc1-c1nc2ccccc2c(=O)[nH]1 [I.2]	1	6	40	63	98	–	110289	95096	87269	–	–	about 10 minutes	NO signal increase	–	–	does not degrade in the absence of enzyme
